Data: patent US9447068B2, “Functionalized polymer compositions” (Novus International Inc., priority 2012, dated 2016)

Tested on: Ross 708 male broilers
Test: In vivo efficacy study in chickens: methionine source in methionine-deficient diet
Settings: young broilers, 0 to 14 days of age, 0.15% added methionine, diet deficient in methionine (0.26%)
Procedure: HMTBA homopolymer was compared to HMTBA calcium salt (MHA) in young broilers chicks as methionine source with a diet deficient in dietary methionine (0.26%) as negative control. A total of 108 Ross 708 male broilers were randomly assigned to 18 battery pens with 6 birds per pen. Six replicate pens were fed one of the 3 test diets from 0 to 14 days of age. HMTBA and MHA were added at equal molar basis to provide 0.15% added methionine. Growth performance parameters including body weight, feed conversion ratio (FCR), feed intake, and mortality, were measured and the body weight and FCR results are shown in FIG. 4.

## CSCCC(O)C(=O)[O-].CSCCC(O)C(=O)[O-].[Ca+2] (stereo not shown) [MHA, HMTBA calcium salt]
  body weight: significantly increased
  feed conversion ratio (FCR): significantly improved
  performance index: significantly increased
  weight gain: significantly increased
